Assay results reported in patent US10632137B2, “Composition containing ivermectin for exterminating Clavinema mariae infection on Sebastes schlegeli” (REPUBLIC OF KOREA (National Institute of Fisheries Science), priority 2017, dated 2020).
“Also recorded” adds a separate entry of the source.

Key:
Clavinema mariae [1] = experiment: organism not typed; conditions: for Viability of Clavinema mariae (Dead %/Survived): after 1 hour; for Antiparasitic effect of Clavinema mariae in vitro compared with the recommended concentration: in vitro killing concentration versus recommended concentration of Table 3; for Killing Concentration (ppm): in vitro, Clavinema mariae in PBS, 1 hour
Text: Candidate materials of a medicine for exterminating Clavinema mariae infection on Sebastes schlegeli were screened by examining various documents (Table 1). […] From the Sebastes schlegeli naturally infected with Clavinema mariae, the Clavinema mariae was carefully removed with tweezers, preserved in PBS, and directly exposed to nine candidate materials at various concentrations to evaluate the antiparasitic effect. […] However, after being killed, the movement disappears, and thus whether it is dead or not is able to be easily determined by observing whether it moves or not. Among the nine candidate materials, Febendazole, Pyrantel, Levamisole, Piperazine, Ivermectin, Trichlorfon, and Praziqantel were purchased from Sigma Aldrich (USA), and hydrogen peroxide and formalin solution were purchased from Junsei (Japan). Among the candidate materials, a poorly soluble compound, Febendazole, was dissolved in 100% ethanol and diluted with PBS to be used. Piperazine and Ivermectin were dissolved in dimethylsulfoxide (DMSO) and diluted with PBS to be used.
Clavinema mariae was extracted from Sebastes schlegeli (average weight: 150 g) cultivated on the west coast of Cheonsu Bay area (FIG. 1), 2 ml of each candidate material diluted with PBS to have each concentration was dispensed into a 6-well plate. Ten (10) living Clavinema mariae were placed in each well, and viability thereof was confirmed after 1 hour (FIG. 2).

Clavinema mariae [2] = experiment: In vivo killing (antiparasitic) effect in Sebastes schlegeli naturally infected with Clavinema mariae
Procedure: 500 Sebastes schlegeli (116±17 g, 20±9 cm) on the west coast region of Korea were purchased and were allowed to habituate at a water temperature of 18.5 to 21° C. in a sea water tank for one week. Since the Sebastes schlegeli infected with Clavinema mariae is able to be confirmed by visual inspection, the Sebastes schlegeli was anesthetized with MS-222, and only the Sebastes schlegeli infected with Clavinema mariae was screened by visual inspection and used for clinical examination.

Sebastes schlegeli [3] = experiment: Histological analysis (H&E) of internal organs after Ivermectin oral administration; type: in vivo; conditions: for hepatocyte (liver histology): oral, 4 times, one week after last administration
Procedure: Ivermectin was orally administered to Sebastes schlegeli according to dosing concentrations, dosing times, and dosing intervals described in Table 6, and after one week from the last oral administration, histological analysis of internal organs was performed. The histological analysis was performed by fixing the liver, kidney, spleen and gill of the experimental fish with 10% neutral formalin, followed by dehydration and paraffin embedding, and the cut tissues were stained with hematoxylin-eosin (H & E) and examined. As a result of histopathological examination, the spleen, kidney, and gill except the liver were normal in all tissues as compared with the control group. […] Therefore, it was confirmed that administration of 1 ppm of Ivermectin 4 times daily or every 2 to 3 days or administration of 2 ppm of Ivermectin every 2 to 3 days was the most preferable administration method in view of stability.

Sebastes schlegeli [4] = experiment: Mortality (death of fish) of treated Sebastes schlegeli
Text: For the oral administration, a predetermined amount of each candidate material was mixed with blended powder feed to prepare a feed pellet, the Sebastes schlegeli was anesthetized, and the feed pellet was inserted up to the stomach with tweezers (FIG. 2). […] After 2 weeks, all experimental fishes were anesthetized with MS-222, and Clavinema mariae was extracted with tweezers to confirm the death. The control group was anesthetized, and then only feed pill to which the drug is not added was orally administered thereto.
For this purpose, 10 Sebastes schlegeli infected with Clavinema mariae were divided for each experimental group, and when two weeks passed after the Ivermectin was administered a total of 1 to 4 times daily or every 2 to 4 days while changing an oral administration concentration from 1 to 18 ppm, the antiparasitic effect and the mortality of the Clavinema mariae were observed.

[5] = 1 h, read-out: Viability of Clavinema mariae (Dead %/Survived)
[6] = oral, 5 ppm, 1 administration, after 2 weeks
[7] = at the concentrations shown in Table 4, once, after 2 weeks
[8] = medicated bath, 50 ppm, 10 minutes, 1 bath, after 2 weeks
[9] = medicated bath, 50 ppm, 10 minutes, 1 bath, observed for 2 weeks

COP(=O)(OC)C(O)C(Cl)(Cl)Cl (centres unmarked) [Trichlorfon]
Viability of Clavinema mariae (Dead %/Survived) (Clavinema mariae [1]; 2.5 ppm in PBS): Survived
Viability of Clavinema mariae (Dead %/Survived) (Clavinema mariae [1]; 25 ppm in PBS): Survived
mortality at 50 ppm (Clavinema mariae [1]; [5]): 100%
mortality at 75 ppm (Clavinema mariae [1]; [5]): 100%
Antiparasitic effect of Clavinema mariae in vitro compared with the recommended concentration (Clavinema mariae [1]): showed the antiparasitic effect at a very high concentration
Killing Concentration (ppm) (Clavinema mariae [1]): 25-50 ppm

Ivermectin
Time until the spot where the pus is formed disappeared and was completely cured (Clavinema mariae [2]; oral, 1 ppm once): ≤ 6 weeks
Antiparasitic effect against Clavinema mariae on Sebastes schlegeli (Clavinema mariae [2]; oral, 1 ppm once, after two weeks): some individuals had pus in a spot infected with the Clavinema mariae, and showed the antiparasitic effect
Killing Effect (%) (Clavinema mariae [2]; oral, 1 ppm, 1 administration, after 2 weeks): 20%
Killing Effect (%) (Clavinema mariae [2]; oral, 1 ppm, 4 times, everyday, after two weeks): 100%
Killing Effect (%) (Clavinema mariae [2]; oral, 1 ppm, 4 times, intervals 2-3 days, after two weeks): 100%
Nematode antiparasitic effect (Clavinema mariae [2]; oral, 1 to 2 ppm, 4 times): 100%
State of the infection area after 6 weeks (Clavinema mariae [2]; oral, 1 to 2 ppm, 4 times, after 6 weeks): the infection area was cleanly treated
Killing Effect (%) (Clavinema mariae [2]; oral, 2 ppm, 4 times, everyday, after two weeks): 100%
Killing Effect (%) (Clavinema mariae [2]; oral, 2 ppm, 4 times, intervals 2-3 days, after two weeks): 100%
Killing Effect (%) (Clavinema mariae [2]; oral, 3 ppm, 2 times, everyday, after two weeks): 100%
Killing Effect (%) (Clavinema mariae [2]; oral, 3 ppm, 2 times, interval 3 days, after two weeks): 100%
Killing Effect (%) (Clavinema mariae [2]; oral, 4 ppm, 2 times, everyday, after two weeks): 100%
Killing Effect (%) (Clavinema mariae [2]; oral, 5 ppm, 2 times, everyday, after two weeks): 100%
Killing Effect (%) (Clavinema mariae [2]; oral, 6 ppm, 2 times, interval 4 days, after two weeks): 100%
Histopathological examination of spleen, kidney and gill (Sebastes schlegeli [3]; all regimens of Table 6, compared with the control group): normal
hepatocyte (liver histology) (Sebastes schlegeli [3]; 1 ppm, 2-3 days): Abnormality of the liver tissue was not confirmed; also recorded: Normal
hepatocyte (liver histology) (Sebastes schlegeli [3]; 1 ppm, everyday): Abnormality of the liver tissue was not confirmed; also recorded: Normal
hepatocyte (liver histology) (Sebastes schlegeli [3]; 2 ppm, 2-3 days): Abnormality of the liver tissue was not confirmed; also recorded: Normal
hepatocyte (liver histology) (Sebastes schlegeli [3]; 2 ppm, everyday): hepatocyte metamorphosis, vacuolar formation
Death of fish (%) (Sebastes schlegeli [4]; oral, 1 ppm, 1 administration, observed for 2 weeks): 0%
Death of fish (%) (Sebastes schlegeli [4]; oral, 1 ppm, 4 times, everyday): 0%
Death of fish (%) (Sebastes schlegeli [4]; oral, 1 ppm, 4 times, intervals 2-3 days): 0%
Behaviour and death of Sebastes schlegeli (Sebastes schlegeli [4]; oral, 2 ppm, 4 times): some Sebastes schlegeli were sitting on the bottom and died
Death of fish (%) (Sebastes schlegeli [4]; oral, 2 ppm, 4 times, everyday): 20%
Death of fish (%) (Sebastes schlegeli [4]; oral, 2 ppm, 4 times, intervals 2-3 days): 0%
Death of Sebastes schlegeli (Sebastes schlegeli [4]; oral, 3 ppm or more): death occurred after being administered 2 times
Death of fish (%) (Sebastes schlegeli [4]; oral, 3 ppm, 2 times, everyday): 60%
Death of fish (%) (Sebastes schlegeli [4]; oral, 3 ppm, 2 times, interval 3 days): 20%
Death of fish (%) (Sebastes schlegeli [4]; oral, 4 ppm, 2 times, everyday): 60%
Death of fish (%) (Sebastes schlegeli [4]; oral, 5 ppm, 2 times, everyday): 30%
Death of fish (%) (Sebastes schlegeli [4]; oral, 6 ppm, 2 times, interval 4 days): 70%
Death of fish (%) (Sebastes schlegeli [4]; oral, 18 ppm, 1 time): 100%
Viability of Clavinema mariae (Dead %/Survived) (Clavinema mariae [1]; 0.001 ppm in PBS): Survived
Viability of Clavinema mariae (Dead %/Survived) (Clavinema mariae [1]; 0.01 ppm in PBS): Dead (100%)
Viability of Clavinema mariae (Dead %/Survived) (Clavinema mariae [1]; 0.05 ppm in PBS): Dead (100%)
Viability of Clavinema mariae (Dead %/Survived) (Clavinema mariae [1]; 0.5 ppm in PBS): Dead (100%)
Antiparasitic effect of Clavinema mariae in vitro compared with the recommended concentration (Clavinema mariae [1]): at a lower concentration than the recommended concentration
Killing Concentration (ppm) (Clavinema mariae [1]): 0.001-0.01 ppm

c1ccc([C@H]2CN3CCSC3=N2)cc1 [Levamisole]
Killing Effect (%) (Clavinema mariae [2]; oral, 2.5 ppm, 1 administration, after 2 weeks): 0%
Killing Effect (%) (Clavinema mariae [2]; [6]): 0%
mortality at 0.5 ppm (Clavinema mariae [1]; [5]): 20%
mortality at 1 ppm (Clavinema mariae [1]; [5]): 100%
mortality at 1.7 ppm (Clavinema mariae [1]; [5]): 100%
Antiparasitic effect of Clavinema mariae in vitro compared with the recommended concentration (Clavinema mariae [1]): at a lower concentration than the recommended concentration

C=O [Formaline, Formalin]
Antiparasitic effect against Clavinema mariae on Sebastes schlegeli (Clavinema mariae [2]; [7]): could not be confirmed to have the antiparasitic effect
Killing Effect (%) (Clavinema mariae [2]; [8]): 0%
Killing Effect (%) (Clavinema mariae [2]; medicated bath, 200 ppm, 10 minutes, 1 bath, after 2 weeks): 0%
Death of fish (%) (Sebastes schlegeli [4]; [9]): 0%
Death of fish (%) (Sebastes schlegeli [4]; medicated bath, 200 ppm, 10 minutes, 1 bath, observed for 2 weeks): 0%
mortality at 25 ppm (Clavinema mariae [1]; [5]): 100%
mortality at 50 ppm (Clavinema mariae [1]; [5]): 100%
mortality at 70 ppm (Clavinema mariae [1]; [5]): 100%
mortality at 350 ppm (Clavinema mariae [1]; [5]): 100%
Antiparasitic effect of Clavinema mariae in vitro compared with the recommended concentration (Clavinema mariae [1]): at a lower concentration than the recommended concentration
Killing Concentration (ppm) (Clavinema mariae [1]): 25 ppm

C1CNCCN1 [Piperazine]
Killing Effect (%) (Clavinema mariae [2]; oral, 100 ppm, 1 administration, after 2 weeks): 0%
Killing Effect (%) (Clavinema mariae [2]; oral, 300 ppm, 1 administration, after 2 weeks): 0%
Death of fish (%) (Sebastes schlegeli [4]; oral, 100 ppm, 1 administration, observed for 2 weeks): 0%
Death of fish (%) (Sebastes schlegeli [4]; oral, 300 ppm, 1 administration, observed for 2 weeks): 30%
mortality at 50 ppm (Clavinema mariae [1]; [5]): 100%
mortality at 75 ppm (Clavinema mariae [1]; [5]): 100%
mortality at 100 ppm (Clavinema mariae [1]; [5]): 100%
Antiparasitic effect of Clavinema mariae in vitro compared with the recommended concentration (Clavinema mariae [1]): at a lower concentration than the recommended concentration
Killing Concentration (ppm) (Clavinema mariae [1]): 33-50 ppm

COC(=O)Nc1nc2ccc(Sc3ccccc3)cc2[nH]1 [Fenbendazole]
Killing Effect (%) (Clavinema mariae [2]; [6]): 0%
Killing Effect (%) (Clavinema mariae [2]; oral, 15 ppm, 1 administration, after 2 weeks): 0%
Death of fish (%) (Sebastes schlegeli [4]; oral, 5 ppm, 1 administration, observed for 2 weeks): 0%
Death of fish (%) (Sebastes schlegeli [4]; oral, 15 ppm, 1 administration, observed for 2 weeks): 0%
Viability of Clavinema mariae (Dead %/Survived) (Clavinema mariae [1]; 1.7 ppm in PBS): Survived
Viability of Clavinema mariae (Dead %/Survived) (Clavinema mariae [1]; 5 ppm in PBS): Survived
mortality at 15 ppm (Clavinema mariae [1]; [5]): 100%
mortality at 30 ppm (Clavinema mariae [1]; [5]): 100%
Killing Concentration (ppm) (Clavinema mariae [1]): 5-15 ppm

O=C(C1CCCCC1)N1CC(=O)N2CCc3ccccc3C2C1 (centres unmarked) [Praziquantel]
mortality at 800 ppm (Clavinema mariae [1]; [5]): 100%
mortality at 1600 ppm (Clavinema mariae [1]; [5]): 100%
Antiparasitic effect of Clavinema mariae in vitro compared with the recommended concentration (Clavinema mariae [1]): did not show the antiparasitic effect of Clavinema mariae at a concentration 2000 times higher than the recommended concentration
Killing Concentration (ppm) (Clavinema mariae [1]): 400-800 ppm

OO [Hydrogen peroxide]
Antiparasitic effect against Clavinema mariae on Sebastes schlegeli (Clavinema mariae [2]; [7]): could not be confirmed to have the antiparasitic effect
Killing Effect (%) (Clavinema mariae [2]; medicated bath, 10 ppm, 10 minutes, 1 bath, after 2 weeks): 0%
Killing Effect (%) (Clavinema mariae [2]; [8]): 0%
Death of fish (%) (Sebastes schlegeli [4]; medicated bath, 10 ppm, 10 minutes, 1 bath, observed for 2 weeks): 0%
Death of fish (%) (Sebastes schlegeli [4]; [9]): 0%
mortality at 5 ppm (Clavinema mariae [1]; [5]): 100%
mortality at 10 ppm (Clavinema mariae [1]; [5]): 100%
mortality at 14 ppm (Clavinema mariae [1]; [5]): 100%
mortality at 280 ppm (Clavinema mariae [1]; [5]): 100%
Antiparasitic effect of Clavinema mariae in vitro compared with the recommended concentration (Clavinema mariae [1]): at a lower concentration than the recommended concentration
Killing Concentration (ppm) (Clavinema mariae [1]): <5 ppm

CN1CCCN=C1/C=C/c1cccs1 [Pyrantel]
Killing Effect (%) (Clavinema mariae [2]; oral, 2.7 ppm, 1 administration, after 2 weeks): 0%
Death of fish (%) (Sebastes schlegeli [4]; oral, 2.7 ppm, 1 administration, observed for 2 weeks): 0%
mortality at 0.06 ppm (Clavinema mariae [1]; [5]): 20%
mortality at 0.09 ppm (Clavinema mariae [1]; [5]): 100%
mortality at 0.9 ppm (Clavinema mariae [1]; [5]): 100%
Antiparasitic effect of Clavinema mariae in vitro compared with the recommended concentration (Clavinema mariae [1]): at a lower concentration than the recommended concentration
Killing Concentration (ppm) (Clavinema mariae [1]): 0.02-0.06 ppm
